Results as given in patent US12655125B2 (SIRONAX LTD., priority 2020, dated 2026).

Each molecule was assayed on HT-29 cells (assay: HT29 Cells 0FBS Assay In Vitro (TNF-α/SMAC mimetic/zVAD-FMK induced necroptosis, CellTiter-Glo cell viability)). Conditions: Homo sapiens; HT-29 cells, FBS free medium, TNF-α (10 ng/ml), SMAC mimetic (6 uM), zVAD-FMK (10 μM), 20 hours; geometric mean EC50; read-out: Cell activity (EC50) of Compounds 117-281.
Type: cell-based
In short: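 Viability was measured by ATP luminescence (CellTiter-Glo) after 20 h at 37° C of compound exposure in 10-point, 1:3 dilutions. Necroptosis in FBS-free HT-29 cultures was driven by a TNF-α (10 ng/ml), SMAC mimetic (6 μM) and zVAD-FMK (10 μM) cocktail. EC50 values are geometric means from duplicate curves.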
`Cc1c(-c2cc(OC3CN(C(=O)N4N=CC[C@H]4c4cc(F)cc(F)c4)C3)c(F)cn2)nn(C)c1C(=O)NCCO` [compound 265, (S)-3-(4-((1-(5-(3,5-difluorophenyl)-4,5-dihydro-1H-pyrazole-1-carbonyl)azetidin-3-yl)oxy)-5-fluoropyridin-2-yl)-N-(2-hydroxyethyl)-1,4-dimethyl-1H-pyrazole-5-carboxamide] gave an EC50 of 0.0001 to 0.1 µM.
`Cc1c(-c2cc(OC3CN(C(=O)N4N=CC[C@H]4c4cc(F)cc(F)c4)C3)c(F)cn2)nn(C)c1C1=NCCN1` [compound 266, (S)-(5-(3,5-difluorophenyl)-4,5-dihydro-1H-pyrazol-1-yl)(3-((2-(5-(4,5-dihydro-1H-imidazol-2-yl)-1,4-dimethyl-1H-pyrazol-3-yl)-5-fluoropyridin-4-yl)oxy)azetidin-1-yl)methanone] showed an EC50 of 0.0001 to 0.1 µM.
Molecule `Cc1c(-c2cc(OC3CN(C(=O)N4N=CC[C@H]4c4cc(F)cc(F)c4)C3)c(F)cn2)nn(C)c1C1=NCCN1C` [compound 267, (S)-(5-(3,5-difluorophenyl)-4,5-dihydro-1H-pyrazol-1-yl)(3-((2-(1,4-dimethyl-5-(1-methyl-4,5-dihydro-1H-imidazol-2-yl)-1H-pyrazol-3-yl)-5-fluoropyridin-4-yl)oxy)azetidin-1-yl)methanone] has an EC50 of 0.1 to 1 µM.
`Cc1noc(C)c1-c1cc(OC2CN(C(=O)N3N=CC[C@H]3c3cc(F)cc(F)c3)C2)c(F)cn1` [compound 268, (S)-(5-(3,5-difluorophenyl)-4,5-dihydro-1H-pyrazol-1-yl)(3-((2-(3,5-dimethylisoxazol-4-yl)-5-fluoropyridin-4-yl)oxy)azetidin-1-yl)methanone] was tested, and the EC50 was 0.0001 to 0.1 µM.
`Cc1nn(-c2cc(OC3CN(C(=O)N4N=CC[C@H]4c4cc(F)cc(F)c4)C3)c(F)cn2)c(C)c1CN(C)C` [compound 269, (S)-(5-(3,5-difluorophenyl)-4,5-dihydro-1H-pyrazol-1-yl)(3-((2-(4-((dimethylamino)methyl)-3,5-dimethyl-1H-pyrazol-1-yl)-5-fluoropyridin-4-yl)oxy)azetidin-1-yl)methanone] was tested, and the EC50 was 0.0001 to 0.1 µM.
`Cc1nn(-c2cc(OC3CN(C(=O)N4N=CC[C@H]4c4cc(F)cc(F)c4)C3)c(F)cn2)c(C)c1N1CCCC1=O` [compound 270, (S)-1-(1-(4-((1-(5-(3,5-difluorophenyl)-4,5-dihydro-1H-pyrazole-1-carbonyl)azetidin-3-yl)oxy)-5-fluoropyridin-2-yl)-3,5-dimethyl-1H-pyrazol-4-yl)pyrrolidin-2-one] gave an EC50 of 0.0001 to 0.1 µM.
In the case of `Cc1nn(-c2cc(OC3CN(C(=O)N4N=CC[C@H]4c4cc(F)cc(F)c4)C3)c(F)cn2)c(C)c1CC#N` [compound 271, (S)-2-(1-(4-((1-(5-(3,5-difluorophenyl)-4,5-dihydro-1H-pyrazole-1-carbonyl)azetidin-3-yl)oxy)-5-fluoropyridin-2-yl)-3,5-dimethyl-1H-pyrazol-4-yl)acetonitrile], the EC50 is reported as 0.0001 to 0.1 µM.
With `Cc1nn(-c2cc(OC3CN(C(=O)N4N=CC[C@H]4c4cc(F)cc(F)c4)C3)c(F)cn2)cc1C(N)=O` [compound 272, (S)-1-(4-((1-(5-(3,5-difluorophenyl)-4,5-dihydro-1H-pyrazole-1-carbonyl)azetidin-3-yl)oxy)-5-fluoropyridin-2-yl)-3-methyl-11H-pyrazole-4-carboxamide] the EC50 was 0.0001 to 0.1 µM.
`Cc1c(C(N)=O)cnn1-c1cc(OC2CN(C(=O)N3N=CC[C@H]3c3cc(F)cc(F)c3)C2)c(F)cn1` [compound 273, (S)-1-(4-((1-(5-(3,5-difluorophenyl)-4,5-dihydro-1H-pyrazole-1-carbonyl)azetidin-3-yl)oxy)-5-fluoropyridin-2-yl)-5-methyl-1H-pyrazole-4-carboxamide] showed an EC50 of 0.0001 to 0.1 µM.
Molecule `Cc1nn(-c2cc(OC3CN(C(=O)N4N=CC[C@H]4c4cc(F)cc(F)c4)C3)c(F)cn2)c(C)c1CN1CCCC1=O` [compound 274, (S)-1-((1-(4-((1-(5-(3,5-difluorophenyl)-4,5-dihydro-1H-pyrazole-1-carbonyl)azetidin-3-yl)oxy)-5-fluoropyridin-2-yl)-3,5-dimethyl-11H-pyrazol-4-yl)methyl)pyrrolidin-2-one] has an EC50 of 0.0001 to 0.1 µM.
Molecule `Cc1nn(-c2ccc(F)c(OC3CN(C(=O)N4N=CC[C@H]4c4cc(F)cc(F)c4)C3)n2)c(C)c1C(N)=O` [compound 275] has an EC50 of 0.0001 to 0.1 µM.
Molecule `Cc1nn(-c2ncc(F)c(OC3CN(C(=O)N4N=CC[C@H]4c4cc(F)cc(F)c4)C3)n2)c(C)c1C(N)=O` [compound 276, (S)-1-(4-((1-(5-(3,5-difluorophenyl)-4,5-dihydro-1H-pyrazole-1-carbonyl)azetidin-3-yl)oxy)-5-fluoropyrimidin-2-yl)-3,5-dimethyl-1H-pyrazole-4-carboxamide] has an EC50 of 0.0001 to 0.1 µM.
`[2H]C1(c2cc(F)cc(F)c2)CC=NN1C(=O)N1CC(Oc2cc(-n3nc(C)c(C(N)=O)c3C)ncc2F)C1` (centres unmarked) [compound 277, 1-(4-((1-(5-(3,5-difluorophenyl)-4,5-dihydro-1H-pyrazole-1-carbonyl-5-d)azetidin-3-yl)oxy)-5-fluoropyridin-2-yl)-3,5-dimethyl-1H-pyrazole-4-carboxamide] gave an EC50 of 0.0001 to 0.1 µM.
`Cc1nn(-c2cc(OC3CN(C(=O)N4N=CC[C@H]4c4cc(F)cc(F)c4)C3)c(F)cn2)c(C)c1CC(=O)O` [compound 278, (S)-2-(1-(4-((1-(5-(3,5-difluorophenyl)-4,5-dihydro-1H-pyrazole-1-carbonyl)azetidin-3-yl)oxy)-5-fluoropyridin-2-yl)-3,5-dimethyl-1H-pyrazol-4-yl)acetic acid] gave an EC50 of 0.1 to 1 µM.
`Cc1nn(-c2cc(OC3CN(C(=O)N4N=CC[C@H]4c4cc(F)cc(F)c4)C3)c(F)cn2)c(C)c1C(C)(C)C(=O)O` [compound 279, (S)-2-(1-(4-((1-(5-(3,5-difluorophenyl)-4,5-dihydro-1H-pyrazole-1-carbonyl)azetidin-3-yl)oxy)-5-fluoropyridin-2-yl)-3,5-dimethyl-1H-pyrazol-4-yl)-2-methylpropanoic acid] showed an EC50 of 0.1 to 1 µM.
With `Cc1nn(-c2cc(OC3CN(C(=O)N4N=CC[C@H]4c4cc(F)cc(F)c4)C3)c(F)cn2)c(C)c1C(C)(C)C(N)=O` [compound 280, (S)-2-(1-(4-((1-(5-(3,5-difluorophenyl)-4,5-dihydro-1H-pyrazole-1-carbonyl)azetidin-3-yl)oxy)-5-fluoropyridin-2-yl)-3,5-dimethyl-1H-pyrazol-4-yl)-2-methylpropanamide] the EC50 was 0.0001 to 0.1 µM.
Work on `CCc1nn(-c2cc(OC3CN(C(=O)N4N=CC[C@H]4c4cc(F)cc(F)c4)C3)c(F)cn2)c(C)c1C(N)=O` [compound 281, (S)-1-(4-((1-(5-(3,5-difluorophenyl)-4,5-dihydro-1H-pyrazole-1-carbonyl)azetidin-3-yl)oxy)-5-fluoropyridin-2-yl)-3-ethyl-5-methyl-1H-pyrazole-4-carboxamide] yielded an EC50 of 0.0001 to 0.1 µM.
